Reference: patent publication US11078152B2, “Method for resolution of baclofen salts” (Universite de Rouen, priority 2016, dated 2021)

Columns and labels:
[1] = Determination of the solubility of the racemic Bahma salt in a given solvent at a given temperature; type: physicochemical; details: for Solubility 1M HCl: aqueous 1M HCl solution; for Solubility 2M HCl: aqueous 2M HCl solution; for Solubility: n-propanol/water azeotropic mixture; for Solubility Water: pure water
Protocol: Determination of the Solubility
The solubility of a Bahma salt in a given solvent was calculated, for a given temperature and in a given volume of solvent, via the following formula:
[formula] in which mBahma is the mass of the Bahma salt introduced in grams to reach saturation; ρsolvent is the density of the solvent in g.mL^−1; and Vsolvent is the volume of the solvent in mL.
The solubility of the racemic Bahma salt at various temperatures was determined in the n-propanol/water azeotropic mixture (ρ=0.870 g.mL^−1).
The solubility of the racemic Bahma salt at various temperatures was determined in pure water (ρ=1 g.mL^−1), in aqueous 1M HCl solution (ρ=1.017 g.mL^−1) and in aqueous 2M HCl solution (ρ=1.030 g.mL^−1).

[2] = background statement, no test described; cited from earlier work

SMILES	Solubility 1M HCl ([1]; 20° C.) [%]	Solubility 1M HCl ([1]; 35° C.) [%]	Solubility 1M HCl ([1]; 50° C.) [%]	Solubility 2M HCl ([1]; 20° C.) [%]	Solubility 2M HCl ([1]; 35° C.) [%]	Solubility 2M HCl ([1]; 50° C.) [%]	Solubility ([1]; 20° C.) [%]	Solubility ([1]; 35° C.) [%]	Solubility ([1]; 50° C.) [%]	Solubility Water ([1]; 20° C.) [%]	Solubility Water ([1]; 35° C.) [%]	Solubility Water ([1]; 50° C.) [%]	activity relative to the S(+) enantiomer [2]
NCC(CC(=O)O)c1ccc(Cl)cc1.O=C(O)C=CC(=O)O (racemic) [racemic Bahma salt, baclofen hydrogen maleate]	4.51	6.86	12.54	6.48	11.44	22.24	1.49	2.80	4.81	0.75	1.00	1.78	–
NC[C@H](CC(=O)O)c1ccc(Cl)cc1 [R(−) enantiomer, (R)-4-amino-3-(4-chlorophenyl)butanoic acid]	–	–	–	–	–	–	–	–	–	–	–	–	three times more active than the S(+) enantiomer
